Source: patent US20110105515A1, “TARGETING THE ONCOPROTEIN NUCLEOPHOSMIN” (President and Fellows of Harvard College, priority 2007, published 2011)
Entries after “also recorded” stand apart in the source; their conditions may differ. Values belong to the molecule of their own block, whether it stands above or below them.

Columns and labels:
[1] = test system: T-47D cells; assay: Antiproliferative assay (CellTiter-Blue), T-47D cells; assay type: cell-based, human; details: 72-h incubation
Experimental: G. Antiproliferative Assays. […] The cell suspension was diluted to 1.0×10^5 cells/mL. A multichannel pipette was used to load the wells of a 96-well plate with 100 μL per well of the diluted cell suspension. […] The following day, 100-μg portions of the nitrone samples were removed from the freezer, thawed, and dissolved in filter-sterilized DMSO to a concentration of 5 mM. A 6.5-μL aliquot of the nitrone solution was dissolved in 643.5 μL of medium to achieve a working concentration of 50 μM. Serial dilutions were employed to generate a range of different concentrations for analysis. Finally, 100-μL aliquots of this diluted nitrone solution were added to the wells containing adhered cells, resulting in final assay concentrations of up to 25 μM. The treated cells were incubated for 72 h at 37° C. (5% CO2). To each well was added 20 μL of CellTiter-Blue reagent, and the samples were returned to the incubator. Fluorescence (560 nm excitation/590 nm emission) was recorded on a 96-well plate reader following a 4.0-h incubation period (37° C., 5% CO2). Percent growth inhibition was calculated for each well, based upon the following formula: Percent growth inhibition=100×(S−B0)/(Bt−B0); where S is the sample reading, Bt is the average reading for a vehicle-treated population of cells at the completion of the assay, and B0 is the average reading for an untreated population of cells at the beginning of the assay. Each analogue was run a minimum of eight times, over a period of at least two weeks. For each compound, 14 separate concentrations were used in the assay, ranging from 25 μM to 8 nM. The average inhibition at each concentration was plotted against concentration, and a curve fit was generated. […] Final GI50 values reflect the concentrations at which the resulting curves pass through 50 percent inhibition.
The cell suspension was diluted to 1.0×10^5 cells/mL. A multichannel pipette was used to charge the wells of a 96-well plate with 100 μL per well of the diluted cell suspension.
The following day, a 6.5-μL aliquot of nitrone solution, at 5 mM in DMSO, was diluted in 643.5 μL of medium to achieve a working concentration of 50 μM. Serial dilutions were employed to generate a range of different concentrations for analysis. Finally, 100-μL aliquots of the diluted nitrone solutions were added to the wells containing adhered cells, resulting in final assay concentrations of up to 25 μM.
The treated cells were incubated for 72 h at 37° C. (5% CO2). To each well was added 20 μL of CellTiter-Blue reagent, and the samples were returned to the incubator. Fluorescence (560 nm excitation/590 nm emission) was recorded on a 96-well plate reader following a 4.0 h incubation period (37° C., 5% CO2).
Percent growth inhibition was calculated for each well, based upon the following formula:
Percent growth inhibition=100×(S−B0)/(Bt−B0)
where S is the sample reading, Bt is the average reading for a vehicle-treated population of cells at the completion of the assay, and B0 is the average reading for an untreated population of cells at the beginning of the assay.

[2] = target: T1, nucleophosmin (Homo sapiens, UniProt P06748); assay: Competitive binding affinity-isolation with probe 5 in T-47D lysates, nucleophosmin; details: for inhibition of binding of nucleophosmin to probe 5 by analogues (FIG. 4): T-47D nuclear-enriched lysate
[3] = target: T2, peroxiredoxin 1 (PRX1) (Homo sapiens, UniProt Q06830); assay: Competitive binding affinity-isolation with probe 5 in T-47D lysates, peroxiredoxin 1; details: 10 μM probe 5, 100 μM inhibitor
T2 construct: endogenous in cells; host or cells: T-47D lysate
Excerpt: (§1) The supernatant was discarded.
(§2) See above for solution preparation.

[4] = target: T3, exportin-1 (XPO1) (Homo sapiens, UniProt O14980); assay: Competitive binding affinity-isolation with probe 5 in T-47D lysates, exportin-1; details: 10 μM probe 5, 100 μM inhibitor
T3 construct: endogenous in cells; host or cells: T-47D lysate
Excerpt: as §1, §2

[5] = test system: MALME-3M and MALME-3 cells; assay: Selectivity assay, malignant melanoma MALME-3M versus fibroblast MALME-3; assay type: cell-based; details: MALME-3M versus MALME-3
Experimental: […]. A cell line from a healthy fibroblast from the same patient has also been deposited with the American Type Cell Culture Corporation (ATCC). Fresh stockes of both MALME-3M and MALME-3 from ATCC. Avrainvillamide was test against the two cells lines at the same time, taking all possible precautions to ensure that both sets of samples were treated identically. […] As a measure of cytotoxicity and antiproliferative activity, we calculated both LC50 and LC25 (as an estimate of GI50).
The 9.7-fold selectivity at 25 percent cell death is representative of at least a modest degree of selectivity. For comparison, cytochalsine B and geldanamycin were analyzed in identical experiments. Cytochalasine B is a non-selective cytotoxic agent for which a selectivity factor of 0.2 at 25 percent cell death was observed. Geldanamycin is known to be a potent, selective inhibitor of tumor cell growth for which a selectivity factor of >100 at 25 percent cell death was observed.

[6] = target: T1, nucleophosmin; assay: Affinity-isolation from incubations with live T-47D cells, Western-blot detection of nucleophosmin; assay type: binding; parameters: endogenous in cells; host or cells: T-47D (live cells, whole-cell lysate, nuclear-enriched lysate); details: 3 μM 5 versus 9 μM 3, 90 min
Experimental: To identify potential binding proteins, populations of healthy (adherent) T-47D cells were treated with the newly synthesized biotin conjugate 5 or the structurally simpler biotin-containing probe 3, previously studied. As a control, a separate population of cells was treated with the biotin derivative 7, which lacks the unsaturated nitrone function. The treated cells were incubated with probe or control for 90 min at 37° C., then were harvested, washed and lysed. The individual lysates were exposed to an agarose resin to remove nonspecific binding proteins. After centrifugation, the supernatants were then exposed to a streptavidin-agarose resin. This resin was collected by centrifugation and washed. Bound proteins were released by heat-denaturation, separated by SDS-PAGE, and analyzed by LC-MS/MS and Western-blot.
The lysates were transferred to fresh 1.7-mL centrifuge tubes. Each individual sample lysate was treated with 50 μL of washed, well-suspended, two-fold diluted Sepharose resin. […] The supernatant was transferred to a clean 1.7-mL centrifuge tube.
as §1

[7] = test system: NPM1.3 (nucleophosmin isoform); assay: Affinity-isolation of NPM1.3 cysteine to alanine mutants expressed in COS-7 cells with probe 5; details: 1 μM probe 5, COS-7 cell lysates
[8] = target: NPM1.3 (nucleophosmin isoform) (Homo sapiens, UniProt P06748, C275A); assay: as above; details: 1 μM probe 5, COS-7 cell lysates
[9] = test system: LNCaP cells; assay: Antiproliferative assay (CellTiter-Blue), LNCaP cells; assay type: cell-based, human; details: 72-h incubation
Experimental: G. Antiproliferative Assays. […] The cell suspension was diluted to 1.0×10^5 cells/mL. A multichannel pipette was used to load the wells of a 96-well plate with 100 μL per well of the diluted cell suspension. […] The following day, 100-μg portions of the nitrone samples were removed from the freezer, thawed, and dissolved in filter-sterilized DMSO to a concentration of 5 mM. A 6.5-μL aliquot of the nitrone solution was dissolved in 643.5 μL of medium to achieve a working concentration of 50 μM. Serial dilutions were employed to generate a range of different concentrations for analysis. […] Fluorescence (560 nm excitation/590 nm emission) was recorded on a 96-well plate reader following a 4.0-h incubation period (37° C., 5% CO2). Percent growth inhibition was calculated for each well, based upon the following formula: Percent growth inhibition=100×(S−B0)/(Bt−B0); where S is the sample reading, Bt is the average reading for a vehicle-treated population of cells at the completion of the assay, and B0 is the average reading for an untreated population of cells at the beginning of the assay. […]
The treated cells were incubated for 72 h at 37° C. […] Fluorescence (560 nm excitation/590 nm emission) was recorded on a 96-well plate reader following a 4.0 h incubation period (37° C., 5% CO2).
Percent growth inhibition was calculated for each well, based upon the following formula: […]

[10] = target: T1, nucleophosmin; assay: Titration of probe 5-nucleophosmin binding in T-47D whole cell lysate; parameters: endogenous in cells; host or cells: T-47D (live cells, whole-cell lysate, nuclear-enriched lysate); details: whole-cell lysates of T-47D cells
Experimental: as §1
A 1-mL aliquot of T-47D whole cell lysate was thawed at 4° C. and diluted with 4 mL wash buffer, to afford a working lysate of 1.5 mg/mL total protein.

[11] = test system: proteins of T-47D cells; assay: Affinity-isolation from T-47D cells, LC-MS/MS analysis of proteins; details: narrower region of the gel; equal concentrations
[12] = target: T1, nucleophosmin; assay: Affinity-isolation following co-incubation with iodoacetamide; assay type: binding; parameters: endogenous in cells; host or cells: T-47D (live cells, whole-cell lysate, nuclear-enriched lysate); details: 10 μM probe 5, 10 mM iodoacetamide; whole cell lysate
Experimental: Identical affinity-isolation experiments to those described in the previous section were performed, except that iodoacetamide (8 μL of a freshly prepared 500 mM solution in DMSO) was added to one sample: […]

Structure (SMILES): CC1(C)C=Cc2c(ccc3c2[N+]([O-])=C2C3=C[C@@]34NC(=O)[C@]5(CCCN5C3=O)C[C@H]4C2(C)C)O1 (single isomer, unassigned; ent-1) [ent-1, (−)-avrainvillamide]
fold less potent than (+)-1 as inhibitor of T-47D cell growth [1]: ~3 fold
binding of nucleophosmin to probe 5 in the presence of a 10-fold higher concentration of competitor ([2]; 10 μM probe 5, 100 μM competitor, nuclear-enriched and whole-cell T-47D lysates): not diminished
concentration required for inhibition of probe 5-nucleophosmin binding ([2]; T-47D lysate): 500 µM
fold higher concentration versus 1 required for inhibition of probe 5-nucleophosmin binding ([2]; T-47D lysate): ~5 fold
blocking of the binding of probe 5 to peroxiredoxin 1 (PRX1) [3]: capable of blocking
blocking of the binding of probe 5 to exportin-1 (XPO1) [4]: capable of blocking

Structure (SMILES): C=C1[C@@H](C)[C@H]2[C@H](Cc3ccccc3)NC(=O)[C@]23OC(=O)/C=C/[C@H](O)CCC[C@@H](C)C/C=C/[C@H]3[C@@H]1O [Cytochalasine B, reference compound]
selectivity factor, melanoma cells relative to fibroblast control (LC25, 25 percent cell death, estimate of GI50) [5]: 0.2

Structure (SMILES): COC1=C2C[C@@H](C)C[C@H](OC)[C@H](O)[C@@H](C)/C=C(\C)[C@H](OC(N)=O)[C@@H](OC)/C=C\C=C(/C)C(=O)NC(=CC1=O)C2=O [Geldanamycin, reference compound]
selectivity factor, melanoma cells relative to fibroblast control (LC25, 25 percent cell death, estimate of GI50) [5]: > 100

Structure (SMILES): CN(C)c1cccc2c(S(=O)(=O)NCCCCCCCCCCOc3ccc4c(c3)[N+]([O-])=C3C4=C[C@@]45NC(=O)C6(CCCN6C4=O)CC5C3(C)C)cccc12 (some centres unmarked) [compound 4]
inhibition of the growth of T-47D cells (antiproliferative potency, in words) [1]: potencies similar to the natural product

effect of deletion of cys275 on affinity-isolation of NPM1.3 [8]: greatly reduced
concentration of probe sufficient to afford detectable levels of nucleophosmin [10]: 100 to 500 nM
Structure (SMILES): CC1(C/C=C/CCCCCCCCOC(=O)CCCC[C@@H]2SC[C@@H]3NC(=O)N[C@@H]32)C=Cc2c(ccc3c2[N+]([O-])=C2C3=C[C@@]34NC(=O)C5(CCCN5C3=O)CC4C2(C)C)O1 (some centres unmarked) [compound 5]
inhibition of the growth of T-47D cells (antiproliferative potency, in words) [1]: potencies similar to the natural product
inhibition of the growth of T-47D cells (antiproliferative potency, in words) ([1]; listed as biotin-avrainvillamide conjugate): nearly equipotent to (+)-avrainvillamide
affinity-isolation of nucleophosmin by biotinylated probe (Western-blot) [6]: more effectively bound nucleophosmin; also recorded: selectively bind
effect of deletion of cys21 or cys104 on affinity-isolation of NPM1.3 [7]: little effect
inhibition of the growth of LNCaP cells (antiproliferative potency, in words) [9]: somewhat less potent than the dansyl conjugate (4)
detection of nucleophosmin by LC-MS/MS after affinity isolation [11]: detected

Structure (SMILES): COCCCCCCCCCCNS(=O)(=O)c1cccc2c(N(C)C)cccc12 [compound 6, reference compound]
inhibition of the growth of T-47D cells (antiproliferative potency, in words) [1]: inactive
inhibition of the growth of LNCaP cells (antiproliferative potency, in words) [9]: inactive

inhibition of binding of nucleophosmin to probe 5 by analogues (FIG. 4) [2]: inhibited essentially equivalently
Structure (SMILES): CC1(C)C2=[N+]([O-])c3cc(-c4ccccc4)ccc3C2=C[C@@]23NC(=O)C4(CCCN4C2=O)CC13 (some centres unmarked) [compound 8]
inhibition of the growth of T-47D cells (antiproliferative potency, in words) [1]: nearly as potent as avrainvillamide

inhibition of binding of nucleophosmin to probe 5 by analogues (FIG. 4) [2]: only partially inhibited
Structure (SMILES): CC1(C)C2=[N+]([O-])c3ccc(-c4ccccc4)cc3C2=C[C@@]23NC(=O)C4(CCCN4C2=O)CC13 (some centres unmarked) [compound 9]
fold less potent than (+)-1 as inhibitor of T-47D cell growth [1]: 3 fold

inhibition of binding of nucleophosmin to probe 5 by analogues (FIG. 4) [2]: least effectively inhibited
Structure (SMILES): CC1(C)C2=[N+]([O-])c3cc(C#Cc4ccccc4)ccc3C2=C[C@@]23NC(=O)C4(CCCN4C2=O)CC13 (some centres unmarked) [compound 10]

inhibition of binding of nucleophosmin to probe 5 by analogues (FIG. 4) [2]: least effectively inhibited
Structure (SMILES): CC1(C)C2=[N+]([O-])c3c(cccc3-c3ccccc3)C2=C[C@@]23NC(=O)C4(CCCN4C2=O)CC13 (some centres unmarked) [compound 11]

Structure (SMILES): NC(=O)CI [iodoacetamide]
binding of nucleophosmin to probe 5 in the presence of a 1000-fold excess [12]: substantially reduced
